Values of other authors in patent US20070232589A1, “Pharmaceutical Composition And Method For Treating Neurodegenerative Disorders” (Myriad Genetics, Incorporated, priority 2004, published 2007).
Read-outs that look alike come from different tables or passages of the source.

What was measured:
[1] = in vivo
[2] = clinical trial; rofecoxib 25 mg daily
Aβ42 [3] = details: transgenic mouse model
Aβ42 [4] = details: CHO cells
[5] = 50 mg and 100 mg doses, human subjects
[6] = patients having mild cognitive impairment
[7] = in vivo excitotoxic model

Structure (SMILES): CC12CC3CC(C)(C1)CC(N)(C3)C2 [memantine]
- efficacy in treating mild-to-moderate AD [1]: showed efficacy

Structure (SMILES): COc1ccc2cc([C@H](C)C(=O)O)ccc2c1 [Naproxen]
- efficacy for treating AD [2]: failed to show efficacy

Structure (SMILES): C[C@@H](C(=O)O)c1ccc(-c2ccccc2)c(F)c1 [(R)-2-(2-fluoro-4-biphenylyl)propionic acid]
- Aβ42 lowering (Aβ42 [3]): lower Aβ42
- Aβ42 lowering (Aβ42 [4]): lower Aβ42
- analgesic effect [5]: produced an analgesic effect
- inhibition of COX activity (COX): negligibly inhibits COX activity

Structure (SMILES): CS(=O)(=O)c1ccc(C2=C(c3ccccc3)C(=O)OC2)cc1 [rofecoxib]
- prevention of development of Alzheimer's disease [6]: failed to prevent the development of Alzheimer's disease
- patients who developed AD ([6]; placebo 4.5%): 6.4%
- neuroprotection [7]: provides neuroprotection
- efficacy for treating AD [2]: failed to show efficacy
